Source: PubChem BioAssay AID743068 (The Scripps Research Institute Molecular Screening Center, 2013)

Test system: T. brucei
Test: T. brucei bloodstream-form proliferation inhibition – absorbance, round 1, T. brucei MetRS inhibitor project, late-stage follow-up (AID 743068)
Settings: T. brucei Lister 427 bloodstream forms, AlamarBlue fluorescence, 48 h

SMILES | IC50
CCN(CC)C(=O)C(=O)c1cn(CC(=O)Nc2cccc(C(F)(F)F)c2)c2ccccc12 | 2.55 µM
CCO[C@H]1OC(C(=O)NCc2nc3ccccc3[nH]2)=C[C@@H](c2ccc(Br)cc2)[C@@H]1CCCO | > 10 µM
CC(C)(C)[C@H]1C=C(C(=O)NCc2nc3ccccc3[nH]2)O[C@@H](OCc2ccc(CO)cc2)C1 | > 10 µM
CC(C)c1nc2ccc(C(=O)N(C)CCc3nc4ccc(F)cc4[nH]3)cc2o1 | > 10 µM
COc1ccccc1NC(=O)Cn1cc(C(=O)C(=O)N2CCOCC2)c2ccccc21 | > 10 µM
O=C(NCc1nc2ccccc2[nH]1)C1=C[C@@H](C2CC2)C[C@@H](OCc2ccc(CO)cc2)O1 | > 10 µM
COc1cccc(NC(=O)C2CC(=O)n3c(nc4ccccc43)N2)c1 (stereo not given) | > 10 µM
Cc1ccc2[nH]c3nc(SCC(=O)Nc4ccc(C(F)(F)F)cc4)nnc3c2c1 | > 10 µM
O=C(Cn1cc(C(=O)c2ccco2)c2ccccc21)Nc1cccc(C(F)(F)F)c1 | 8.18 µM
Cc1ccc(CNC(=O)CSc2nnc3c(n2)[nH]c2ccc(C)cc23)cc1 | > 10 µM
O=C(NCCc1nc2ccccc2[nH]1)c1ccc(Cl)cc1Cl | > 10 µM
Cc1ccc(C(=O)NCCc2nc3ccccc3[nH]2)cc1C | > 10 µM
O=C(C(=O)N1CCOCC1)c1cn(CC(=O)N2CCCc3ccccc32)c2ccccc12 | > 10 µM
COc1ccc(CCN(C(=S)Nc2ccccc2)C2CC(=O)N(c3ccc(Cl)cc3)C2=O)cc1 (stereo not given) | 2.1 µM
Cc1cccc2[nH]c(CCN(C)C(=O)c3cccc(C4CCNC4)c3)nc12 (stereo not given) | > 10 µM
CCc1ccc2[nH]c3nc(SCC(=O)NCc4cccc(OC)c4)nnc3c2c1 | > 10 µM
O=C(Cn1cc(C(=O)C(=O)N2CCOCC2)c2ccccc21)NCc1ccccc1 | > 10 µM
Cc1ccc(C(=O)NCCc2nc3ccccc3[nH]2)cc1[N+](=O)[O-] | > 10 µM
CC(=O)N(CCc1ccccc1)C1CC(=O)N(c2ccc(Br)cc2)C1=O (stereo not given) | > 10 µM
CCCCn1c(CCNC(=O)c2ccc(F)cc2)nc2ccccc21 | > 10 µM
CCC(=O)c1cn(CC(=O)Nc2cccc(C(F)(F)F)c2)c2ccccc12 | > 10 µM
CCN(CC)C(=O)C(=O)c1cn(CC(=O)N2CCCc3ccccc32)c2ccccc12 | > 10 µM
O=C(NCCc1nc2ccccc2[nH]1)c1ccc(Cl)c(Cl)c1 | > 10 µM
O=C(NCc1nc2ccccc2[nH]1)C1=C[C@H](c2ccccc2)C[C@H](OCc2ccc(CO)cc2)O1 | > 10 µM
COc1ccccc1NC(=O)CSc1nnc2c(n1)[nH]c1ccc(C)cc12 | > 10 µM
COc1ccc(NC(=O)CSc2nnc3c4cc(C)ccc4n(C)c3n2)cc1 | > 10 µM
O=C(Cn1cc(C(=O)C(=O)N2CCOCC2)c2ccccc21)NCC1CCCO1 (stereo not given) | > 10 µM
Cc1cccc2[nH]c(C3CCCN(C(=O)c4cccc5cccnc45)C3)nc12 (stereo not given) | > 10 µM

SMILES | IC50
CNC(=S)N(CCc1ccccc1)C1CC(=O)N(c2ccc(Br)cc2)C1=O (stereo not given) | 3.44 µM
Cn1c(CCNC(=O)c2ccc(Cl)cc2)nc2ccccc21 | > 10 µM
O=C(CSC1CC(=O)N(c2cccc(Cl)c2)C1=O)Nc1ccc(Br)cc1 (stereo not given) | > 10 µM
CCN(CC)C(=O)C(=O)c1cn(CC(=O)N(CC)c2ccccc2)c2ccccc12 | > 10 µM
O=C(NCCc1nc2ccccc2[nH]1)c1ccc(Cl)cc1 | > 10 µM
O=C1CC(NCCc2ccccc2)C(=O)N1c1ccc(Br)cc1 (stereo not given) | > 10 µM
COc1ccc(NC(=O)C2CC(=O)n3c(nc4ccccc43)N2)cc1 (stereo not given) | > 10 µM
O=C(Cn1cc(C(=O)C2CC2)c2ccccc21)Nc1cccc(C(F)(F)F)c1 | 2.62 µM
O=C(NCc1nc2ccccc2[nH]1)C1=C[C@H](c2ccc3c(c2)OCO3)C[C@H](OCCCCO)O1 | > 10 µM
CC(=O)c1cn(CC(=O)Nc2cccc(C(F)(F)F)c2)c2ccccc12 | > 10 µM
O=C(NCCc1nc2ccccc2[nH]1)c1c(F)cccc1F | > 10 µM
CCN(CC)C(=O)C(=O)c1cn(CC(=O)Nc2ccccc2OC)c2ccccc12 | > 10 µM
CCN(CCc1nc2ccc(C)cc2[nH]1)C(=O)c1ccc2ncccc2c1 | > 10 µM
O=C(Cn1cc(C(=O)C(=O)N2CCCC2)c2ccccc21)Nc1ccccc1 | > 10 µM
Cc1cc2cc(C(=O)N3CCCC(c4nc5ccccc5[nH]4)C3)ccc2o1 (stereo not given) | > 10 µM
COc1ccc(CCN(C(=O)c2cccc(F)c2)C2CC(=O)N(c3ccc(Br)cc3)C2=O)cc1 (stereo not given) | > 10 µM
CC1Cc2ccccc2N1C(=O)Cn1cc(C(=O)C(=O)N2CCOCC2)c2ccccc21 (stereo not given) | > 10 µM
CCN(CC)C(=O)C(=O)c1cn(CC(=O)Nc2cccc(OC)c2)c2ccccc12 | > 10 µM
Cc1cccc(NC(=O)C2CC(=O)n3c(nc4ccccc43)N2)c1 (stereo not given) | > 10 µM
O=C(Cn1cc(C(=O)COc2ccccc2)c2ccccc21)Nc1cccc(C(F)(F)F)c1 | > 10 µM
O=C(Cn1cc(C(=O)c2ccccc2)c2ccccc21)Nc1cccc(C(F)(F)F)c1 | 4.2 µM
CC(=O)N(CCc1ccccc1)C1CC(=O)N(c2ccc(Cl)cc2)C1=O (stereo not given) | > 10 µM
O=C(CSc1nnc2c(n1)[nH]c1ccc(Br)cc12)NCc1ccccc1 | > 10 µM
COCCc1nc2ccc(C(=O)NCCc3nc4ccc(OC)cc4[nH]3)cc2o1 | > 10 µM
Cc1cccc(C(=O)NCCc2nc3ccccc3n2CCOc2ccccc2)c1 | > 10 µM
CCN(C(=O)Cn1cc(C(=O)C(=O)N2CCOCC2)c2ccccc21)c1ccccc1 | > 10 µM
CCc1ccc2c(c1)c1nnc(SCC(=O)Nc3ccc4c(c3)OCO4)nc1n2C | > 10 µM
